pIC50: −log10 of the molar value.
Experiments:
CSNK1D = biological target: T1, CSNK1D (Homo sapiens, UniProt P48730); test: Kinase inhibition test (DNA-tagged kinase, affinity resin, qPCR readout); type: binding; parameters: key: (−) indicates no effect; (+) indicates weak inhibitory activity; (++) indicates a moderate level of inhibitory activity; (+++) indicates strong inhibitory activity; conditions: 1 μM of compound
T1 construct: made in house
Description: (§1) In order to examine the inhibitory activity of the nucleoside derivatives of the present invention synthesized in the Preparation Examples against kinases, the nucleoside derivatives were confirmed to have inhibitory activity against neurotrophic tyrosine kinase receptor type 1 or tropomyosin receptor kinase A (NTRK1), casein kinase 1 isoform delta (CSNK1D), dual specificity tyrosine-phosphorylation-regulated kinase 1A (DYRK1A), dual specificity tyrosine-phosphorylation-regulated kinase 1B (DYRK1B) and receptor-type tyrosine-protein kinase or fms like tyrosine kinase 3 or cluster of differentiation antigen 135 (CD135) or fetal liver kinase-2 (Flk2) (FLT3).
(§2) The inhibition measurement method is as follows. Most of the kinases were produced by culturing a phage in which BL21 E. coli was tagged with a kinase at 32° C. until lysis, followed by centrifugation and filtration. Further, the kinases were produced using HEK-293 cells. Thereafter, the kinases were DNA tagged for qPCR. After an affinity resin was prepared by stirring a biotin-tagged substrate onto streptavidin-coated beads for 30 minutes, a non-specifically bound substrate was washed with a buffer (SeaBlock (Pierce), 1% BSA, 0.05% Tween 20, 1 mM DTT).
(§3) For a kinase test, the kinase, the substrate, the affinity resin, and a test material dissolved in dimethyl sulfoxide were stirred together in a buffer (20% SeaBlock, 0.17×PBS, 0.05% Tween20, and 6 mM DTT) at room temperature for 1 hour. Thereafter, an affinity substrate was washed with a buffer (1×PBS, 0.05% Tween20), and then suspended in an elution buffer (1×PBS, 0.05% Tween20, 0.5 μM non-biotinylated affinity ligand), and the resulting suspension was stirred. The concentration of the kinase was quantified by qPCR.

DYRK1A = biological target: T2, DYRK1A (Homo sapiens, UniProt Q13627); test: as above; type: binding; parameters: key: (−) indicates no effect; (+) indicates weak inhibitory activity; (++) indicates a moderate level of inhibitory activity; (+++) indicates strong inhibitory activity; conditions: 1 μM of compound
T2 construct: made in house
Description: as §1, §2, §3

DYRK1B = biological target: T3, DYRK1B (Homo sapiens, UniProt Q9Y463); test: as above; type: binding; parameters: key: (−) indicates no effect; (+) indicates weak inhibitory activity; (++) indicates a moderate level of inhibitory activity; (+++) indicates strong inhibitory activity; conditions: 1 μM of compound
T3 construct: made in house
Description: as §1, §2, §3

NTRK1 = biological target: T4, NTRK1 (Homo sapiens, UniProt P04629); test: as above; type: binding; parameters: key: (−) indicates no effect; (+) indicates weak inhibitory activity; (++) indicates a moderate level of inhibitory activity; (+++) indicates strong inhibitory activity; conditions: 1 μM of compound
T4 construct: made in house
Description: as §1, §2, §3

A549 (lung cancer cells) = test: Inhibitory activity against cancer cells (sulforhodamine B staining); type: cell-based; conditions: 3 days, SRB staining
Procedure: (§4) In order to examine the anticancer activity of the nucleoside derivatives of the present invention synthesized in the Preparation Examples, the ICso of each of A549 (lung cancer cells), HCT116 (colon cancer cells), MDA-MB-231 (breast cancer cells), SK-Hep-1 (liver cancer cells), SNU638 (stomach cancer cells) and PC-3 (prostate cancer cells) against cancer cells was measured.
(§5) The test method is as follows. Cells were allowed to stand for 1 day and set as a control on day 0. Further, after a test material was added to the cells, the cells were allowed to stand for 3 days. Thereafter, the cells were stained with 1% acetic acid and 0.4% sulforhodamine B. The stained cells were dried and dissolved in 10 mM Tris (pH 10.0). Absorbance was measured at 515 nm, and the degree of cell division was determined using the following equation. After calculation as Cell division (%)=(average absorbancetest material−average absorbanceday 0)/(average absorbance control-average absorbanceday 0)×100, the degree of cell division was calculated through a non-linear regression analysis using Table Curve 2D v5.01 (Systat Software Inc., San Jose, CA, USA).

[1] = tested on: HCT116 (colon cancer cells); test: as above; type: cell-based; conditions: 3 days, SRB staining
Procedure: as §4, §5

[2] = tested on: MDA-MB-231 (breast cancer cells); test: as above; type: cell-based; conditions: 3 days, SRB staining
Procedure: as §4, §5

[3] = tested on: PC-3 (prostate cancer cells); test: as above; type: cell-based; conditions: 3 days, SRB staining
Procedure: as §4, §5

[4] = tested on: SK-Hep-1 (liver cancer cells); test: as above; type: cell-based; conditions: 3 days, SRB staining
Procedure: as §4, §5

[5] = tested on: SNU638 (stomach cancer cells); test: as above; type: cell-based; conditions: 3 days, SRB staining
Procedure: as §4, §5

T4 sequence (P04629 33-796): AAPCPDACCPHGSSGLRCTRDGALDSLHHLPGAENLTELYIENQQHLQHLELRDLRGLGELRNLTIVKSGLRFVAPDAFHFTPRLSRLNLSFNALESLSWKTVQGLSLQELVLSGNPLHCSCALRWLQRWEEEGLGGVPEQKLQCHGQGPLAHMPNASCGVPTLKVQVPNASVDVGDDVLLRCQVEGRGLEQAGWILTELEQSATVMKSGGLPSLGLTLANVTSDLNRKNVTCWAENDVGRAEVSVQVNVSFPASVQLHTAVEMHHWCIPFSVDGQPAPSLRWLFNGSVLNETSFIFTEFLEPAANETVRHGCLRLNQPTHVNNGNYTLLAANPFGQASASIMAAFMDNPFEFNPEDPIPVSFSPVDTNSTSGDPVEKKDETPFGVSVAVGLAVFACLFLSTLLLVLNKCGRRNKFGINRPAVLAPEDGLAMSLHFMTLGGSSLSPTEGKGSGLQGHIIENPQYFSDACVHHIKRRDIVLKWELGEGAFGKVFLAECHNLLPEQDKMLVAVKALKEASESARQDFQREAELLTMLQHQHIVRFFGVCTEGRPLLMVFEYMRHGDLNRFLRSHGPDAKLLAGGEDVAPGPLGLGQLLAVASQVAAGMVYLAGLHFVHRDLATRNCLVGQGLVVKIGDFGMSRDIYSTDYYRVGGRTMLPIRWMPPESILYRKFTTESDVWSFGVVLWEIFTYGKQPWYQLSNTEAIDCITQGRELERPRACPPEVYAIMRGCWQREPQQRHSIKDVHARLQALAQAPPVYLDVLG
T1 sequence (P48730 whole entry): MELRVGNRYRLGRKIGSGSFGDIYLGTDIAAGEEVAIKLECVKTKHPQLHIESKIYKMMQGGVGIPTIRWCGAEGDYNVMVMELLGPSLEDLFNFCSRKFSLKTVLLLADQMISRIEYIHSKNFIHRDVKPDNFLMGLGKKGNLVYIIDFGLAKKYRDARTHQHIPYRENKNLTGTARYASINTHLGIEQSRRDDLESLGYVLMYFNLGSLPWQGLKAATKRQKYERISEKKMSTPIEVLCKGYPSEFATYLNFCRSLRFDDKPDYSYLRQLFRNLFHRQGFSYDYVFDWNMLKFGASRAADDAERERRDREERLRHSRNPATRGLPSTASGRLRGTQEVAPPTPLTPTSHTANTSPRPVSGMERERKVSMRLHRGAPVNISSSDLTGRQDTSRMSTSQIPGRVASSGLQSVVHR
T3 sequence (Q9Y463 whole entry): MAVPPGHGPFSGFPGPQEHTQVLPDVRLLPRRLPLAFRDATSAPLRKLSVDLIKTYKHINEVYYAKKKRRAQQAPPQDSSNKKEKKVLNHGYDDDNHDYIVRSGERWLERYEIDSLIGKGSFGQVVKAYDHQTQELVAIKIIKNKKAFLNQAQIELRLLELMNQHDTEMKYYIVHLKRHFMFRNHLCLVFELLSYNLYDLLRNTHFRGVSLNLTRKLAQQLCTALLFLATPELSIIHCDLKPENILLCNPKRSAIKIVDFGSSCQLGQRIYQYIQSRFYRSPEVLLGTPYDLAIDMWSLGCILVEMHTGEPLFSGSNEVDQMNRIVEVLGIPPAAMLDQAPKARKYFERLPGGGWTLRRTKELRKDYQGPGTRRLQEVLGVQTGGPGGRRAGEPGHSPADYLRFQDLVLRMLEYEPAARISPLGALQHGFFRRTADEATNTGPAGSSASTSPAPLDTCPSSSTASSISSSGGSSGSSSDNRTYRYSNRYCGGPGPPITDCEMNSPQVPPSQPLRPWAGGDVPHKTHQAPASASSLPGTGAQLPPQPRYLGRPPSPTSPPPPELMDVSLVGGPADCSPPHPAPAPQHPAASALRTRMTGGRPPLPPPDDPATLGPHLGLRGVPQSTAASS

SMILES: NC[C@H]1S[C@@H](n2cc(C(N)=O)c3c(N)ncnc32)[C@H](O)[C@@H]1O [Compound 10c]
- CSNK1D inhibitory activity (CSNK1D): ++
- DYRK1A inhibitory activity (DYRK1A): ++
- DYRK1B inhibitory activity (DYRK1B): ++
- NTRK1 inhibitory activity (NTRK1): ++
- pIC50 (A549 (lung cancer cells)): 5.60
- pIC50 [1]: 5.86
- pIC50 [2]: 5.61
- pIC50 [3]: 5.56
- pIC50 [4]: 5.75
- pIC50 [5]: 5.59

SMILES: N#Cc1cn([C@@H]2S[C@H](CNC(N)=O)[C@@H](O)[C@H]2O)c2ncnc(N)c12 [Compound 11aii]
- CSNK1D inhibitory activity (CSNK1D): ++
- DYRK1A inhibitory activity (DYRK1A): ++
- DYRK1B inhibitory activity (DYRK1B): ++
- NTRK1 inhibitory activity (NTRK1): ++
- pIC50 (A549 (lung cancer cells)): 5.61
- pIC50 [1]: 5.74
- pIC50 [2]: 5.97
- pIC50 [3]: 5.45
- pIC50 [4]: 5.54
- pIC50 [5]: 5.17

SMILES: NC(=O)NC[C@H]1S[C@@H](n2cc(C(N)=O)c3c(N)ncnc32)[C@H](O)[C@@H]1O [Compound 11aiii]
- CSNK1D inhibitory activity (CSNK1D): ++
- DYRK1A inhibitory activity (DYRK1A): ++
- DYRK1B inhibitory activity (DYRK1B): ++
- NTRK1 inhibitory activity (NTRK1): ++
- pIC50 (A549 (lung cancer cells)): 5.34
- pIC50 [1]: 5.87
- pIC50 [2]: 5.61
- pIC50 [3]: 5.55
- pIC50 [4]: 5.13
- pIC50 [5]: 5.25

SMILES: C#Cc1cn([C@@H]2S[C@H](CNCC)[C@@H](O)[C@H]2O)c2ncnc(N)c12 [Compound 11b, (2R,3R,4S,5R)-2-(4-amino-5-ethynyl-7H-pyrrolo[2,3-d]pyrimidin-7-yl)-5-((ethylamino)methyl)tetrahydrothiophene-3,4-diol]
- CSNK1D inhibitory activity (CSNK1D): +++
- DYRK1A inhibitory activity (DYRK1A): ++
- DYRK1B inhibitory activity (DYRK1B): ++
- NTRK1 inhibitory activity (NTRK1): +++
- pIC50 (A549 (lung cancer cells); Homo sapiens, 72 h): 4.91
- pIC50 ([1]; Homo sapiens, HCT-116, 72 h): 4.89
- pIC50 ([2]; Homo sapiens, 72 h): 4.84
- pIC50 ([3]; 72 h): 4.85
- pIC50 ([4]; Homo sapiens, SK-HEP1, 72 h): 4.89
- pIC50 ([5]; Homo sapiens, SNU-638, 72 h): 4.97

SMILES: C#Cc1cn([C@@H]2SC[C@@H](O)[C@H]2O)c2ncnc(N)c12 [Compound 13a]
- CSNK1D inhibitory activity (CSNK1D): ++
- DYRK1A inhibitory activity (DYRK1A): ++
- DYRK1B inhibitory activity (DYRK1B): ++
- NTRK1 inhibitory activity (NTRK1): ++
- pIC50 (A549 (lung cancer cells)): 6.23
- pIC50 [1]: 6.07
- pIC50 [2]: 5.94
- pIC50 [3]: 5.86
- pIC50 [4]: 5.90
- pIC50 [5]: 5.92

SMILES: Nc1ncnc2c1c(-c1ccco1)cn2[C@@H]1SC[C@@H](O)[C@H]1O [Compound 13b]
- CSNK1D inhibitory activity (CSNK1D): ++
- DYRK1A inhibitory activity (DYRK1A): +++
- DYRK1B inhibitory activity (DYRK1B): +++
- NTRK1 inhibitory activity (NTRK1): ++
- pIC50 (A549 (lung cancer cells)): 6.02
- pIC50 [1]: 6.07
- pIC50 [2]: 5.88
- pIC50 [3]: 5.76
- pIC50 [4]: 6.19
- pIC50 [5]: 5.88

SMILES: Nc1ncnc2c1c(-c1cccs1)cn2[C@@H]1SC[C@@H](O)[C@H]1O [Compound 13c]
- CSNK1D inhibitory activity (CSNK1D): +++
- DYRK1A inhibitory activity (DYRK1A): ++
- DYRK1B inhibitory activity (DYRK1B): ++
- NTRK1 inhibitory activity (NTRK1): +++
- pIC50 (A549 (lung cancer cells)): 5.54
- pIC50 [1]: 5.47
- pIC50 [2]: 5.29
- pIC50 [3]: 5.15
- pIC50 [4]: 5.56
- pIC50 [5]: 5.39

SMILES: Nc1ncnc2c1c(-c1ccccc1)cn2[C@@H]1SC[C@@H](O)[C@H]1O [Compound 13d]
- CSNK1D inhibitory activity (CSNK1D): ++
- DYRK1A inhibitory activity (DYRK1A): ++
- DYRK1B inhibitory activity (DYRK1B): ++
- NTRK1 inhibitory activity (NTRK1): ++
- pIC50 (A549 (lung cancer cells)): 5.17
- pIC50 [1]: 5.37
- pIC50 [2]: 5.23
- pIC50 [3]: 5.00
- pIC50 [4]: 5.11
- pIC50 [5]: 5.25

SMILES: C=Cc1cn([C@@H]2SC[C@@H](O)[C@H]2O)c2ncnc(N)c12 [Compound 13e]
- CSNK1D inhibitory activity (CSNK1D): ++
- DYRK1A inhibitory activity (DYRK1A): ++
- DYRK1B inhibitory activity (DYRK1B): ++
- NTRK1 inhibitory activity (NTRK1): ++
- pIC50 (A549 (lung cancer cells)): 5.36
- pIC50 [1]: 5.55
- pIC50 [2]: 5.27
- pIC50 [3]: 5.27
- pIC50 [4]: 5.29
- pIC50 [5]: 5.45

SMILES: N#Cc1cn([C@@H]2SC[C@@H](O)[C@H]2O)c2ncnc(N)c12 [Compound 13f]
- CSNK1D inhibitory activity (CSNK1D): ++
- DYRK1A inhibitory activity (DYRK1A): ++
- DYRK1B inhibitory activity (DYRK1B): +++
- NTRK1 inhibitory activity (NTRK1): ++
- pIC50 (A549 (lung cancer cells)): 5.63
- pIC50 [1]: 5.20
- pIC50 [2]: 5.62
- pIC50 [3]: 5.61
- pIC50 [4]: 5.24
- pIC50 [5]: 5.03

SMILES: NC(=O)c1cn([C@@H]2SC[C@@H](O)[C@H]2O)c2ncnc(N)c12 [Compound 13g]
- CSNK1D inhibitory activity (CSNK1D): +++
- DYRK1A inhibitory activity (DYRK1A): ++
- DYRK1B inhibitory activity (DYRK1B): +++
- NTRK1 inhibitory activity (NTRK1): +++
- pIC50 (A549 (lung cancer cells)): 5.28
- pIC50 [1]: 5.01
- pIC50 [2]: 5.25
- pIC50 [3]: 5.65
- pIC50 [4]: 5.67
- pIC50 [5]: 5.07

SMILES: C#Cc1cn([C@@H]2S[C@H](CO)[C@@H](O)[C@H]2O)c2nc(Cl)nc(N)c12 [Compound 14, (2R,3R,4S,5R)-2-(4-amino-2-chloro-5-ethynyl-7H-pyrrolo[2,3-d]pyrimidin-7-yl)-5-(hydroxymethyl)tetrahydrothiophene-3,4-diol]
- CSNK1D inhibitory activity (CSNK1D): ++
- DYRK1A inhibitory activity (DYRK1A): +++
- DYRK1B inhibitory activity (DYRK1B): +++
- NTRK1 inhibitory activity (NTRK1): ++
- pIC50 (A549 (lung cancer cells); Homo sapiens, 72 h): 6.46
- pIC50 ([1]; Homo sapiens, HCT-116, 72 h): 5.14
- pIC50 ([2]; Homo sapiens, 72 h): 6.28
- pIC50 ([3]; 72 h): 5.61
- pIC50 ([4]; Homo sapiens, SK-HEP1, 72 h): 5.86
- pIC50 ([5]; Homo sapiens, SNU-638, 72 h): 5.26

— patent US20240300991A1, “NUCLEOSIDE DERIVATIVE HAVING MULTI-TARGET KINASE INHIBITORY ACTIVITY AND PHARMACEUTICAL COMPOSITION FOR PREVENTING AND TREATING CANCER COMPRISING SAME” (FUTURE MEDICINE CO., LTD., priority 2021, published 2024)
